Assay results as given in patent publication US20170266168A1, “METHODS FOR PREVENTING OR TREATING OSTEOARTHRITIS” (RUSH UNIVERSITY MEDICAL CENTER, priority 2014, published 2017).

Tests used:
[1] = test system: injured Has1KO joints; assay: Micro-computed Tomography of bone structure after cartilage injury; type: in vivo, mice; details: femur posterior to trochlear groove, day 28
Source text: The effect of pirfenidone administration on bone structure was examined using Micro-computed Tomography (micro-CT) to identify bone differences (FIG. 7). The regions of interest examined included the trabecular bone in the femur directly posterior to the trochlear groove, where the defect was created (FIG. 8) and the cortical bone of the femoral midshaft (FIG. 9.) The trabecular bone parameters, obtained using micro-CT, indicate a recovery in injured Has1KO joints of bone-to-total volume, connectivity density, trabecular number, trabecular thickness, and trabecular separation to naive levels, surpassing even injured WT in bone recovery, and are shown in FIG. 10.

[2] = test system: whole knee joints of Has1KO mice with patellar groove cartilage injury; assay: Whole joint gene expression (TAQMAN qPCR, RT2 Profiler NF-κB and Fibrosis arrays) after cartilage injury; type: in vivo
Description: (§1) Under approved IACUC protocols, a confined non-bleeding cartilage injury was created in the patellar groove of the right legs of 12-wk old male WT and Has1KO (C57Bl6) mice. Pirfenidone was provided in the chow (5 mg/g, Harlan) starting 3 days after surgery, and mice ingested about 600 mg pirfenidone/kg body weight daily. Joint tissue pathology was evaluated by photography of joint tissue surfaces after India Ink application (FIG. 1) and by histology of the intact joint with Safranin-O and Masson's Trichrome stained sections (FIG. 2.) For gene expression studies, skin and muscle was removed and whole knee joints were stored in RNALater. Inventoried TAQMAN® probes for Gapdh, Has2, Tnfaip6, Col1a1, Col3a1 and Vcan V2 were used to measure expression at 0, 7, 14, and 28 days post-injury, and Qiagen RT2 Profiler PCR Assay mouse arrays for NF-κB (PAMM-225ZA) and Fibrosis (PAMM-120ZA) pathways were used to assay whole joints at 21-28 days after injury, with and without pirfenidone treatment. Relative mRNA abundance was calculated as 1000×2−ΔCt, with ΔCt defined as Ct of the gene of interest minus Ct of Gapdh. Fold change was defined as abundance at a time point divided by abundance in the naïve condition for the same genotype.

[3] = test system: Has1KO mice with patellar groove cartilage injury; assay: Joint tissue pathology by histology (Safranin-O, Masson's Trichrome) after cartilage injury; type: in vivo
Description: as §1
In the same way, the effects on expression of pro-inflammatory and pro-fibrotic genes were accompanied by profound effects on tissue pathology. A histologic examination of sagittal sections across the entire joint was done on 3 mice from each group.

[4] = 24 day drug treatment post injury
[5] = sagittal sections across entire joint, 3 mice per group

Cc1ccc(=O)n(-c2ccccc2)c1 [pirfenidone, 5-methyl-1-phenylpyridin-2-one]
trabecular bone parameters (bone-to-total volume, connectivity density, trabecular number, thickness, separation) [1]: recovery | activation of anti-apoptotic, anti-fibrotic and matrix remodeling genes (Sod2, Ccl12, Il13ra2, Serpine1, Timp1) [2, 4]: enhanced | expression of genes in the Nf-κB and Fibrosis pathways (arrays of 84 genes each) [2, 4]: marked effect | expression of genes linked to the aberrant wound healing responses ([2]; pirfenidone in chow 5 mg/g (about 600 mg/kg daily) from 3 days after surgery, whole joint): normalized | Has2 expression (delayed and more prolonged than in WT) ([2]; pirfenidone in chow, whole joint): normalized | Tnfaip6 expression (enhanced at 2 weeks in Has1KO) ([2]; pirfenidone in chow, whole joint, 2 weeks): normalized | Vcan V2 expression (markedly inhibited in Has1KO) ([2]; pirfenidone in chow, whole joint, 7 days): inhibition was corrected | loss of cartilage and subchondral bone in the joint after cartilage injury ([3]; Has1KO, 4 weeks post-injury, Safranin-O stained): reduces | Safranin-O staining in the cartilages (including growth plates) [3, 5]: marked enhancement | appearance of fibrotic tissues [3, 5]: blocked
